Test results published in article PMC3177007 (Cancer gene therapy, 2011).

Columns and labels:
[1] = H2K4b alone; ref [18]; cited from earlier work
siRNA = assay: Gel retardation assay of HK:siRNA nanoplexes; format: binding; conditions: H2K4b:siRNA ratio 0.8 to 1 (w:w); data not shown
[2] = Particle size by dynamic light scattering; format: physicochemical; conditions: DLS; H3K(+H)4b:siRNA 2.2:1 (w/w)
Zeta potential = format: physicochemical; conditions: nanoplexes at selected ratios: H3K(+H)4b:siRNA 2.2:1; (RGD-PEG)-H3K(+H)4b/H2K4b/siRNA 3:0.8:1; (RGD-PEG)^4-H3K(+H)4b/H2K4b/siRNA 4:0.8:1
MDA-MB-435 cells = assay: Cellular uptake of Cy3 labeled-siRNA nanoplexes, confocal microscopy; format: cell-based, human; conditions: cells incubated 4 h with nanoplexes

Sequence	effectiveness as carrier of siRNA in silencing its targets [1]	siRNA retained in gel retardation assay (siRNA)	size of the siRNA nanoplex [2]	zeta potential (Zeta potential)	intracellular fluorescence pattern of Cy3 labeled-siRNA (MDA-MB-435 cells)
KHKHHKHHKHHKHHKHHKHK [H2K4b]	not an effective carrier	35%	–	–	–
KHHHKHHHKHHHHKHHHK [H3K(+H)4b]	–	–	149 ± 41 nm	37 mV	discrete intracellular particles
